# From PMC7912796, “Design, Synthesis, Anticancer Activity, and Solid Lipid Nanoparticle Formulation of Indole- and Benzimidazole-Based Compounds as Pro-Apoptotic Agents Targeting Bcl-2 Protein” (Pharmaceuticals, 2021)
# What was measured:
# [1] = system: MDA-MB-231/breast cancer cells; test: MTT-cell proliferation assay; type: cell-based, human; settings: for IC50: 48 h drug exposure, mean of three experiments ± SEM
# Text: (§1) The potential anti-cancer activity of all fourteen final synthesized compounds was investigated through MTT cytotoxic assay against two different human solid cancerous cell lines; A549/lung and MDA-MB-231/breast adenocarcinoma. The adopted cell-proliferation assay assessed % cell viability in relation to the reducing activity of cellular NADPH-dependent cellular oxidoreductases on tetrazolium dye, MTT [2,5-diphenyl-3-(4,5-dimethylthiazol-2-yl)tetrazolium bromide salt], for furnishing an easily quantified insoluble chromogenic formazan. For each drug concentration, 0.1, 1, 10, and 100 μM, the % cell-viability was estimated relative to negative control following a complete 48 h of drug treatment. Both 5-fluorouracil (5-FU) and doxorubicin (DOX) were set as positive index comparators. Moreover, the safety profile of the synthesized compounds was further investigated by examining their in-vitro cytotoxicity on non-cancerous cell line; MDCK/kidney cells.
# (§2) Evaluating the cytotoxicity of tested compounds on two cancer cell lines (A549/lung and MDA-MB-231/breast adenocarcinoma) and non-cancerous (MDCK/kidney cells) was performed while adopting the formerly described method with small alterations. Cancer cell lines were propagated within Dulbecco’s Modified Eagle Medium-High Glucose (Cat.#: P0103; DMEM_High Glucose with Na.Pyruvate and stable Glutamine, Biowest^TM, Nuaillé, France), while MDA-MB-231 cells were propagated within RPMI-1640 L-Glutamine medium (Cat.#:12-604F; Lonza-Verviers SPRL^TM, Verviers, Belgium). The culturing media were supplemented via 1% antibiotic-antimycotic 100X (Cat.#: L0010; Biowest^TM, Nuaillé, France) and 10% fetal bovine serum (FBS) (Cat.#: EU-000-H; Seralab^TM, West Sussex, UK). Cells were seeded as triplicates within 96-well plate, at 1 × 10^4 cells per well density, after being counted and viability checked using the trypan blue staining solution (Cat.# ab233465; Abcam^TM, Cambridge, MA, USA). Seeded cells were permitted to adhere for 24 h under 5% CO2 and at 37 °C incubating conditions. The assigned compounds were dissolved in 500 µL DMSO affording the stock solution (100 mM) being ready for more diluting within the whole medium to obtain the compound’s final concentrations; 0.1, 1, 10, 100 µM for cell treatments. […] Following 24 h compound-cell treatment, the medium was substituted by fresh one and cells were permitted to develop for 48 h. At four hours prior the end of incubation, 10 μL MTT Sigma-Aldrich^TM (5 mg/mL in PBS 1X without magnesium and calcium; Cat.# 17-516F, Lonza-Verviers^TM, Basel, Switzerland) were added to all wells. Following the complete 48 h incubation, 100 μL DMSO was all added to all wells where they were subsequently centrifuged at 4000 rpm for 5 min allowing the formazan crystals of formazan to precipitate. Color was established and intensities were recorded at 490 nm using Synergy-Neo2® Hybrid MultiMode Plate Reader (BioTek^TM, Winooski, VT, USA), while subtracting the multi-well plates background absorbance at 690 nm. Percentage cell viability was estimated using the subsequent formula: % cell-viability = (average absorbance of treated wells/average absorbance of controls) × 100.
# [2] = system: A549/lung adenocarcinoma cells; test: MTT-cell proliferation assay; type: cell-based, human; settings: for IC50: Homo sapiens, A549, 48 h drug exposure, mean of three experiments ± SEM
# Text: as §1, §2
# A549/lung adenocarcinoma = test: Morphological assessment; type: cell-based, human; settings: 0.1-100 µM (5-FU 100 µM), 48 h, phase-contrast microscope
# [3] = system: MDCK/kidney non-cancerous cells; test: MTT-cell proliferation assay on non-cancerous cell line; type: cell-based; settings: Canis lupus familiaris, MDCK, 48 h, 48 h drug exposure, mean ± SEM
# Text: as §1, §2
melting point [°C],"IC50 ([1]; Homo sapiens, MDA-MB-231, 48 h) [µM]",SMILES,other results
111 to 113,–,"O=C(NN=Cc1ccccc1)c1cc2ccccc2[nH]1 [Compound 7a, N′-benzylidene-1H-indole-2-carbohydrazide]",–
104 to 106,43.8 ± 1.09,"COc1ccc(C=NNC(=O)c2cc3ccccc3[nH]2)cc1 [Compound 7b, N′-(4-methoxybenzylidene)-1H-indole-2-carbohydrazide]",IC50 [3]: 28.9 ± 1.49 µM
90 to 92,–,"CN(C)c1ccc(C=NNC(=O)c2cc3ccccc3[nH]2)cc1 [Compound 7c, N′-(4-(dimethylamino)benzylidene)-1H-indole-2-carbohydrazide]",–
252 to 254,17.4 ± 3.23,"O=C(NN=Cc1cccnc1)c1cc2ccccc2[nH]1 [Compound 7d, N′-(pyridin-3-ylmethylene)-1H-indole-2-carbohydrazide]",–
254 to 256,12.7 ± 0.84,"CCc1ccc(-c2nn(-c3ccccc3)cc2C=NNC(=O)c2cc3ccccc3[nH]2)cc1 [Compound 8a, N′-((3-(4-ethylphenyl)-1-phenyl-1H-pyrazol-4-yl)methylene)-1H-indole-2-carbohydrazide]",IC50 [2]: 23.1 ± 1.45 µM; IC50 [3]: 73.9 ± 2.3 µM
219 to 221,12.8 ± 3.5,"CC(C)c1ccc(-c2nn(-c3ccccc3)cc2C=NNC(=O)c2cc3ccccc3[nH]2)cc1 [Compound 8c, N′-((3-(4-isopropylphenyl)-1-phenyl-1H-pyrazol-4-yl)methylene)-1H-indole-2-carbohydrazide]",IC50 [2]: 11.6 ± 2.57 µM; IC50 [3]: 87.3 ± 3 µM
229 to 231,21.6,"CC(C)Cc1ccc(-c2nn(-c3ccccc3)cc2C=NNC(=O)c2cc3ccccc3[nH]2)cc1 [Compound 8d, N′-((3-(4-isobutylphenyl)-1-phenyl-1H-pyrazol-4-yl)methylene)-1H-indole-2-carbohydrazide]",IC50 [1]: 31.5 ± 4.66 µM

# More lines, now with the values behind:
SMILES,melting point [°C],"IC50 ([1]; Homo sapiens, MDA-MB-231, 48 h) [µM]",other results
"Cc1cccc(NCc2nc3ccccc3[nH]2)c1 [Compound 3a, N-((1H-benzo[d]imidazol-2-yl)methyl)-3-methylaniline]",139 to 141,29.7 ± 4.03,–
"Cc1cccc(C)c1NCc1nc2ccccc2[nH]1 [Compound 3b, N-((1H-benzo[d]imidazol-2-yl)methyl)-2,6-dimethylaniline]",159 to 161,–,effect on cell proliferation ([2]; 0.1-100 µM): irregular effects with tendency to increase the cell proliferation
"Brc1cccc(NCc2nc3ccccc3[nH]2)c1 [Compound 3c, N-((1H-benzo[d]imidazol-2-yl)methyl)-3-bromoaniline]",139 to 141,–,effect on cell proliferation ([1]; 100 µM drug concentration): enhanced cell proliferation
"Oc1ccc(NCc2nc3ccccc3[nH]2)cc1 [Compound 3d, 4-(((1H-benzo[d]imidazol-2-yl)methyl)amino)phenol]",139 to 141,–,–
"O=c1[nH]cc(F)c(=O)[nH]1 [Compound 5-FU, 5-fluorouracil, reference compound]",–,–,cell morphology alterations (A549/lung adenocarcinoma): epithelial-mesenchymal transition was observed
"Cc1nn(-c2ccc([N+](=O)[O-])c([N+](=O)[O-])c2)c(Cl)c1C=NNC(=O)c1cc2ccccc2[nH]1 [Compound 8f, N′-((5-chloro-1-(3,4-dinitrophenyl)-3-methyl-1H-pyrazol-4-yl)methylene)-1H-indole-2-carbohydrazide]",204 to 206,31.5,IC50 [1]: 21.6 ± 0.28 µM
